Measured values reported in PMC8910920 (International Journal of Molecular Sciences, 2022).

What was measured:
[1] = system: voltage-activated Na+ and K+ currents; assay: Whole-cell voltage-clamp, voltage-activated currents in rat DRG neurons; assay type: cell-based; details: 1 µM, depolarization pulse to +10 mV
Protocol: We also investigated the effect of RGM8-51 on native TRPM8 channels from rat DRG neurons. Whole-cell patch-clamp recordings from small size DRG neurons evidenced menthol (100 µM)-activated inward currents at a holding voltage of −80 mV (Figure 3A). As expected from results obtained in rTRPM8-expressing HEK293 cells, RGM8-51 (1 µM) inhibited menthol-activated currents.
Voltage-activated Na^+ and K^+ currents and TRPM8-mediated currents were recorded in DRG neurons isolated from 6-8 weeks old Sprague-Dawley rats, as previously described. Rats were sacrificed by cervical dislocation followed by decapitation and lumbar segments of the spinal column were removed and placed in a cold Ca^2+, Mg^2+-free Hank’s solution (Sigma-Aldrich, Madrid, Spain). The bone surrounding the spinal cord was removed and the right L4, L5 and L6 DRG were exposed and pulled out. […]
Data were sampled at 10 kHz (EPC10 amplifier with PatchMaster 2.53 software, HEKA Electronics, Lambrecht, Germany) and low-pass filtered at 3 kHz for analysis (PatchMaster 2.53 and GraphPad Prism 6.0, Graphpad Software, San Diego, CA, USA). […] Cell capacitance was measured and used to estimate the current density (J, pA/pF).

hTRPV1 = target: T1, hTRPV1 (Homo sapiens, UniProt Q8NER1); assay: hTRPV1 agonist assay (Ca2+ fluorimetry, CHO cells); assay type: cell-based; details: 10 μM
T1 construct: host or cells: CHO
Protocol: These studies were subcontracted to Eurofins-CEREP or Eurofins-PANLABS. Briefly, agonists and antagonist assays were performed in cell cultures overexpressing the corresponding channel (CHO: TRPV1 and TRPA1; HEK293: TRPV3 and ASIC3). In vitro pharmacology, cellular channel functional assays: the compound was prepared in assay buffer to the final concentration, 10 μM. The compound wells, reference agonist and background vehicle controls were prepared in DMSO at 0.3%. The reference agonist for each Ion Channel assayed was prepared in a similar manner to serve as the assay control. […] The agonist assay was conducted on fluorimeter instruments where the test compound, vehicle controls, and reference agonist were added to the assay plate after a fluorescence baseline was established. […] For the antagonist assay, the compound was pre-incubated for five minutes at room temperature, and then challenged with the EC80 concentration of the reference agonist after establishment of a fluorescence baseline. […] Binding assay results are expressed as a percent of control specific binding. […] Aqueous solubility (μM) was determined by comparing the peak area of the principal peak in a calibration standard (200 μM) containing organic solvent (methanol/water, 60/40, v/v) with the peak area of the corresponding peak in a buffer sample. […] The amount of compound in organic phase was calculated by subtraction. […]

T1 sequence (Q8NER1 whole entry): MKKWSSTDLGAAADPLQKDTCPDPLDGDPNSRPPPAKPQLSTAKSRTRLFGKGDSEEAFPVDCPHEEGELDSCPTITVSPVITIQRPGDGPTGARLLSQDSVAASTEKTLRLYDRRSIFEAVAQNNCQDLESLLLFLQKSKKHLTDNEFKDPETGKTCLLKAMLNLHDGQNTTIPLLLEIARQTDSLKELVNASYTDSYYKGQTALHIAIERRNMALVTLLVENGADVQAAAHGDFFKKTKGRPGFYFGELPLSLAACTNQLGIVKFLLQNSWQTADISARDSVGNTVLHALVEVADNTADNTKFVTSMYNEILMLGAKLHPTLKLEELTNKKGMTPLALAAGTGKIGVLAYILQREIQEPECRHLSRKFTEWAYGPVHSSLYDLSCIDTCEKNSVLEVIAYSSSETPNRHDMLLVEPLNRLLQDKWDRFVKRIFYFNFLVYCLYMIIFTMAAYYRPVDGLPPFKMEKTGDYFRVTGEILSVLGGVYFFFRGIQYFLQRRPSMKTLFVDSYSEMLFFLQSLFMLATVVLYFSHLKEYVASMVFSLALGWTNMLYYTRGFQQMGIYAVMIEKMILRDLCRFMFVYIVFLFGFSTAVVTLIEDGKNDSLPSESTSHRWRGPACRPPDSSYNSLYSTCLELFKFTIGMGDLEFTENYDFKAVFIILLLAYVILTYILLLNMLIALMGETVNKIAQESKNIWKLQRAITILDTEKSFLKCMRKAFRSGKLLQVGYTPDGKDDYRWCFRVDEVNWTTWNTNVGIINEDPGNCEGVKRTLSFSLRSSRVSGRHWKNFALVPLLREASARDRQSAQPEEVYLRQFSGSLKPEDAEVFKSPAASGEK

Q: With `C[C@@H]1C(=O)N(C[C@H](Cc2ccccc2)N(Cc2ccccc2)Cc2ccccc2)[C@]1(Cc1ccccc1)C(=O)OC(C)(C)C` [RGM8-51, 4(S)-Benzyl-3S-methyl-4-(tert-butoxy)carbonyl-1-[(2′S-dibenzylamino-3′-phenyl)prop-1′-yl]-2-oxoazetidine] as the compound, how does the “effect on voltage-activated Na+ and K+ currents” value [1] read?
A: had no effect

Q: What about the “hTRPV1 ago. (%)” value (hTRPV1) of the same compound?
A: 31.3 ± 3.6%
